Laboratory results reported in patent US20260109951A1, “METHODS AND COMPOSITIONS FOR INDUCING HEMATOPOIETIC CELL DIFFERENTIATION” (FATE THERAPEUTICS, INC., priority 2022, published 2026).

Legend:
tumor = test: anti-tumor efficacy of treated, cryopreserved iNK cells; format: cell-based; details: treated and cryopreserved cells versus untreated or control cells, FIG. 15
From the text: Cells that have been treated with CH-223191 were cryopreserved in liquid nitrogen long term. To assess recovery of the cells from cryopreservation, the cells were thawed and cultured in B0 medium for a period of 7 days and cell counts taken during the course of this culture. […] Further, cells that have been treated with CH-223191 and cryopreserved in liquid nitrogen were further assessed for function in vitro and in vivo.

iPSC-derived NK cells = test: iNK expansion by co-culture with IL21 and 41BBL expressing irK562 feeder cells; format: cell-based, human; details: about 3 μM added at day 2 of about 7 day expansion, versus without AhR inhibitor, FIG. 14
From the text: To modulate effector cell activation during the cell expansion stage of iPSC differentiation, an AhR (aryl hydrocarbon receptor) inhibitor was discovered to improve effector cell function, including anti-tumor efficacy. iPSCs were differentiated into definitive HE cells as previously described, and were subsequently differentiated into pre-expansion NK cells, at which point they were expanded by co-culture with IL21 and 41BBL expressed by irK562 feeder cells for about 7 days. An exemplary AhR inhibitor, CH-223191 (among others such as UM729, UM171, SR1), was added to the expansion culture at day 2 with a final concentration of about 3 μM to potentiate expansion signals.

[1] = test system: hiPSC-derived CD34+ HE cells; test: hiPSC monolayer differentiation to definitive HE, flow cytometric analysis of D10 cells; format: cell-based, human
Method: To initiate differentiation towards the hematopoietic lineage, hiPSCs were seeded as a monolayer on Day (D) 0 in the maintenance medium and allowed to adhere and expand for about 24 hours. The monolayers were maintained until around D5-D6 at which point they were dissociated into single cells and seeded as a low-density monolayer until differentiation at around D10. The D10 dissociated single cell population was sorted by FACS for further analysis and marker profiling for definitive HE characterization. Alternatively, or in addition thereto, as disclosed herein, one or more of anti-CD82, anti-CD34, and anti-CD43 antibodies were used for cell sorting the D10 cell population to obtain definitive HE cells comprising a phenotype of CD82^+, CD34^+CD82^+ or CD34^+CD43^−CD82^+, which were optionally cryopreserved in cryopreservation medium or continued with effector cell differentiation.
The flow cytometric analysis of D10 cells differentiated under control conditions was compared to cells differentiated under cytokine conditions that includes BMP4. RUNX1 is a transcription factor expressed in the cell and believed to be mostly associated with HE identity. The cells were gated on single/live events. The […] cells and the […] cells were then stained with anti-human antibodies and analyzed by LEGENDScreen™. […]

TNF-α production = details: previously shown; cited from earlier work

Cc1ccccc1N=Nc1ccc(NC(=O)c2ccnn2C)c(C)c1 [CH-223191]
anti-tumor efficacy (tumor): enhanced anti-tumor efficacy at endpoint | fold expansion and yield of differentiated NK cells (iPSC-derived NK cells): greater fold expansion and yield of differentiated NK cells

Fc1ccc(-c2nc(C3CCNCC3)sc2-c2ccnc(NC3CC3)n2)cc1 [DBM1285, cyclopropyl-{4-[4-(4-fluorophenyl)-2-piperidin-4-yl-thiazol-5-yl]pyrimidin-2-yl}amine]
maintenance of CD82 expression (CD82+RUNX1+ subpopulation of CD34+ HE cells) ([1]; p38 MAPK inhibitor added to composition for obtaining definitive HE cells from iPSC): beneficial to maintain CD82 expression | TNF-α production (TNF-α production): inhibit TNF-α production

B1: BMP4: bone morphogenetic protein, cytokine, BMP activator (protein, UniProt P12644 293-408, looked up)
Bone morphogenetic protein 4: SPKHHSQRARKKNKNCRRHSLYVDFSDVGWNDWIVAPPGYQAFYCHGDCPFPLADHLNSTNHAIVQTLVNSVNSSIPKACCVPTELSAISMLYLDEYDKVVLKNYQEMVVEGCGCR
specification of RUNX1+ HE ([1]; D10 cells, cytokine conditions including BMP4 versus control conditions, FIG. 1): specification of RUNX1^+ HE is cytokine driven
